Results from US20220193076A1, “METHODS OF TREATING BREAST CANCER WITH TUCATINIB” (Seagen Inc., priority 2019, published 2022).
pIC50, pKi: −log10 of the molar value.

Assays:
[1] = target: T1, breast cancer resistance protein (BCRP) (Homo sapiens, UniProt Q9UNQ0); assay: In vitro inhibition of BCRP activity; type: in vitro ADME
T1 sequence (Q9UNQ0 1-655): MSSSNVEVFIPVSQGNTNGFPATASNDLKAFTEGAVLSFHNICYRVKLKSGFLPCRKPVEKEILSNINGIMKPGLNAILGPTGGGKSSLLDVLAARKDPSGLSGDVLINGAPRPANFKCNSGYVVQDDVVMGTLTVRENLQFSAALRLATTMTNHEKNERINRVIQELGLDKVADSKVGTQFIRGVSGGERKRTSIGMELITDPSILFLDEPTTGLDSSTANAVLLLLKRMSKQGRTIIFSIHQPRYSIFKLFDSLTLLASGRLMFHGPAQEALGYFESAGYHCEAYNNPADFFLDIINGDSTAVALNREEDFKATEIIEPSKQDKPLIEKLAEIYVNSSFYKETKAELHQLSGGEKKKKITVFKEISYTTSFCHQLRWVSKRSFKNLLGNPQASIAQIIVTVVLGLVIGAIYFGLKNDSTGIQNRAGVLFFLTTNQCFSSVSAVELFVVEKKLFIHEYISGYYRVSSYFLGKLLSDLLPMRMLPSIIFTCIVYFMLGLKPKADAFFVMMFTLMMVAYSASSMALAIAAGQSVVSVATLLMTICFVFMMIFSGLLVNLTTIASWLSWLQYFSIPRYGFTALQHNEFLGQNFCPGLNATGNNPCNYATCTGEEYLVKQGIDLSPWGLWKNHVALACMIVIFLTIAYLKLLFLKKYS

[2] = tested on: CYP3A4; assay: In vitro enzyme activity / mRNA induction in human hepatocytes; type: in vitro ADME
[3] = target: T2, UGT1A1 (Homo sapiens, UniProt P22309); assay: Ki determination in pooled human liver microsomes, β-estradiol 3-glucuronidation (Example 5); type: in vitro ADME
T2 construct: tissue BioreclamationIVT (Baltimore, Md.); host or cells: pooled human liver microsomes, 150 donors
T2 sequence (P22309 26-533): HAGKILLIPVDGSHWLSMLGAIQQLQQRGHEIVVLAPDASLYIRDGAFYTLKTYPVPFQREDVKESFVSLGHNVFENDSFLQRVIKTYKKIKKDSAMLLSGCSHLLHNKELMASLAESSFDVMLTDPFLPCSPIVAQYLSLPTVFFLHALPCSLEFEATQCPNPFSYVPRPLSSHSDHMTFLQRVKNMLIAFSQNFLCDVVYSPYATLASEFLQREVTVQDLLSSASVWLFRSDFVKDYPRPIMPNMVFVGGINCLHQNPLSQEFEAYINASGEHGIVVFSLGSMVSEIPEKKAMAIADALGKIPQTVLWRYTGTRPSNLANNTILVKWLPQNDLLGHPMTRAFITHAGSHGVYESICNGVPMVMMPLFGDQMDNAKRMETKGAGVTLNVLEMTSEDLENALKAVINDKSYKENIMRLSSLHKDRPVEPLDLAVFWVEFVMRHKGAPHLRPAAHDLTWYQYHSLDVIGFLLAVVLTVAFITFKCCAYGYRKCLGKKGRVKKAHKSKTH
Description: The objective of this study was to evaluate in vitro the Ki of tucatinib of the following human hepatic cytochrome P450 (CYP) enzymes (CYP2C8, CYP2C9, and CYP3A4) and UGT1A1. […] Pooled human liver microsomes (HLM) from 150 individuals (79 males and 71 females) were obtained from BioreclamationIVT (Baltimore, Md.) and stored at approximately −70° C. The microsomes were characterized by the supplier for total protein and selected cytochrome P450 activities. […] The final organic solvent contribution was ≤1%. Incubations were terminated by the addition of chilled acetonitrile containing a stable isotope-labeled internal standard. […] Samples were analyzed by liquid chromatography with tandem mass spectrometry (LC-MS/MS). Analyte concentrations were quantified by LC-MS/MS and interpolated from standard curves of authentic analyte. […] Activities were calculated based on analyte concentration, incubation time, and protein concentration. Enzymatic activity (pmol/minute/mg protein) was expressed as the formation of the analyte per final protein concentration per incubation time. Activity remaining was expressed as the enzymatic activity at each concentration point of the test article normalized by the solvent control mean activity. […]

[4] = target: T3, CYP2C8 (Homo sapiens, UniProt P10632); assay: Example 2 Part C: effect of strong CYP2C8 inhibitor gemfibrozil on PK of tucatinib; type: in vivo; parameters: endogenous in cells; host or cells: healthy human subjects, in vivo; conditions: tucatinib 300 mg single dose in combination with gemfibrozil vs tucatinib alone
T3 sequence (P10632 1-490): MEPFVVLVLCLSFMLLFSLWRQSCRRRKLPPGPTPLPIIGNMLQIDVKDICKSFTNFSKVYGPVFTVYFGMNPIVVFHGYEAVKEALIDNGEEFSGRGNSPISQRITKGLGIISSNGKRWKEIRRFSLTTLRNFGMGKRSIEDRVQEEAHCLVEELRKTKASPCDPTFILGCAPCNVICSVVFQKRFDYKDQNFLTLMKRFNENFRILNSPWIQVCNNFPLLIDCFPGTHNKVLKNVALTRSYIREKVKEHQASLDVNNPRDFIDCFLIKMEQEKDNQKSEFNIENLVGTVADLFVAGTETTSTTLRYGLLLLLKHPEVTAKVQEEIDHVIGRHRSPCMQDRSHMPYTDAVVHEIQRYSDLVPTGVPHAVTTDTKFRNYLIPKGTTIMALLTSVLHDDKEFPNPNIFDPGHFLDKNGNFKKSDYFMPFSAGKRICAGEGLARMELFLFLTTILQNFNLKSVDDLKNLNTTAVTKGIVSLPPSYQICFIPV
Description: From Day 3 to Day 8, each subject received single oral doses of 600 mg of gemfibrozil (BID), twice daily (BID). On Day 7, each subject received a single oral dose of 300 mg of tucatinib. […] Other noncompartmental PK parameters may be reported. Additionally, blood samples were collected for determination of trough levels of gemfibrozil prior to morning dosing on the days indicated in FIG. 7.

[5] = tested on: CYP3A4 and CYP2C8; assay: Example 2 Part B: effect of inducer rifampin on PK of tucatinib; type: in vivo, human; conditions: tucatinib 300 mg single dose in combination with rifampin vs tucatinib alone
Description: They were discharged on Day 12 after completion of the in-patient assessments. […] On Day 3 through Day 11, each subject received single oral doses of 600 mg of rifampin once daily (QD). On Day 10, each subject received a single oral dose of 300 mg of tucatinib. […] Other noncompartmental PK parameters may be reported. Additionally, blood samples were collected for determination of trough levels of rifampin prior to morning dosing on the days indicated in FIG. 6.

[6] = Predicted hepatic metabolic stability across species; type: in vitro ADME

SMILES: Cc1cc(Nc2ncnc3ccc(NC4=NC(C)(C)CO4)cc23)ccc1Oc1ccn2ncnc2c1 [tucatinib]
- pIC50 [1]: 5.05
- Induction of in vitro enzyme activity or messenger ribonucleic acid, CYP3A4 [2]: did not induce
- Inhibition mechanism, UGT1A1 [3]: competitive inhibition
- pKi ([3]; marker substrate β-estradiol): 5.74
- Geometric LS mean ratio (90% CI), AUC0-∞ [4]: 3.04 (2.66, 3.46)
- Geometric LS mean ratio (90% CI), AUClast [4]: 2.99 (2.62, 3.41)
- Geometric LS mean ratio (90% CI), Cmax [4]: 1.62 (1.47, 1.79)
- Geometric LS mean ratio (90% CI), AUC0-∞ [5]: 0.520 (0.452, 0.597)
- Geometric LS mean ratio (90% CI), AUClast [5]: 0.517 (0.449, 0.596)
- Geometric LS mean ratio (90% CI), Cmax [5]: 0.632 (0.531, 0.753)
- Stability with respect to hepatic metabolism [6]: good-to-moderate stability
